# Reference: patent US20230355678A1, “METHODS FOR IMPROVING T CELL EFFICACY” (IMMATICS US, INC., priority 2022, published 2023)
# Entries after “also recorded” stand apart in the source; their conditions may differ. Where two headings read alike, the source gives them in different places.
# Key:
# [1] = tested on: transduced T cells; test: Viability of T cell products; design: viability of transduced T cells: dose or concentration left out as unconfirmed; conditions: for viability of transduced T cells: Day 7, vs controls (no HDACi and DMSO), FIG. 2A
# Protocol: (§1) (DMSO low concentration=low volume=0.00001%; vehicle control for Panobinostat at low concentration (1 nM); DMSO high concentration=high volume=1.5%; vehicle control for valproic acid at high concentration (1.5 mM); all except Na butyrate (water) were dissolved in DMSO)
# [2] = tested on: transduced T cells; test: Fold expansion and manufacturing metrics of T cell products; format: cell-based; design: fold expansion: unit of the concentration uncertain; conditions: for fold expansion: FIG. 2B; for fold expansion of T cell products: vs untreated control
# Protocol: as §1
# (§2) On Day 1, the activated CD4/CD8-selected cells were transduced with Lentiviral vectors expressing a target-specific exogenous TCR. On Day 2, the culture media were removed and the transduced cells were fed with fresh media in the absence of Panobinostat, SAHA+IL-21, and AKTi VIII and in the presence of cytokines, for cell expansion. On Day 7-Day 10, cells were harvested and cryopreserved for harvest metrics, phenotypic analysis, and functional studies including Incucyte tumor serial killing assay, cytokine production, and exhaustion analysis. To test the effects of TKi, e.g., dasatinib, on T cell products, dasatinib was added on Day 2 (5 nM) and Day 5 (10 nM) during feeding and expansion.
# (§3) On Day 0, thawed and rested CD4/CD8-selected cells were activated in the presence of anti-CD3/anti-CD28 antibodies. On Day 1, the activated CD4/CD8-selected cells were transduced with Lentiviral vectors expressing a target-specific exogenous TCR and exogenous CD8 molecules. On Day 2, the culture media were removed and the transduced cells were fed with fresh media containing cytokines for cell expansion. Dasatinib was added on Day 2 or on Day 5. On Day 7-Day 10, cells were harvested and cryopreserved for harvest metrics, phenotypic analysis, and functional studies including Incucyte tumor serial killing assay, cytokine production, and exhaustion analysis.
# [3] = tested on: transduced T cells; test: Transduction efficiency by flow cytometry gated on CD3+CD8+ TCR+ cells; format: cell-based; design: % CD8+ T cells / % CD8+ TCR+ cells (transduction efficiency): unit of the concentration uncertain; conditions: for % CD8+ T cells / % CD8+ TCR+ cells (transduction efficiency): FIG. 3; for % CD8+ TCR+ T cells (transduction efficiency) / total number of T cell products with CD8+ TCR+ T cells: vs untreated control
# Protocol: Transduction efficiency of transduced T cells treated with different HDACi were determined by flow cytometry gated on CD3+CD8+ TCR+ cells.
# as §2, §3
# [4] = tested on: transduced T cells; test: Memory T cell phenotype by flow cytometry; format: cell-based; conditions: for CD28+CD62L+ cells (Tcm-like cells): FIG. 5; for % Tnaïve cells / TemRA cells: vs other treatments and control (no HDACi), FIG. 4; for Ranking of T cell products from the most Tnaive and the least TemRA to the least Tnaive and the most TemRA: comparative study, FIG. 25A-B
# Protocol: Phenotypes of transduced T cells treated with different HDACi were determined by flow cytometry gated on CD3+CD8+ TCR+ cells. […] No major difference in immune-checkpoint-inhibitor (ICI) marker expression was observed.
# Using Panobinostat as example, phenotypes of T cell products prepared by Panobinostat treatment on Day 0 (activation), Day 1 (transduction), or Day 2 (feeding) were determined.
# as §2, §3
# [5] = tested on: UACC257; test: Tumor cell killing by T cell products (Incucyte tumor serial killing assay); format: cell-based
# Excerpt: as §2
# T cell products prepared by activating T cells obtained from three patients (n=3) in the presence of Panobinostat, SAHA+IL-21, or AKTi VIII were compared with regards to tumor killing activity when contacting target cells, e.g., UACC257, which express a report gene encoding red florescent protein (RFP), with E:T=3:1. TCR-positive cells were normalized.
# (n=3 healthy donors; TCR normalized T cells:UACC257-iRFP=3:1).
# [6] = tested on: transduced T cells; test: Exhaustion / inhibitory receptor (ICI) marker expression of T cell products; format: cell-based
# Protocol: The sustained expression of multiple inhibitory receptors may be the hallmark of exhausted T cells. Common to both CD4+ and CD8+ exhausted T cells may be the surface expression of multiple inhibitory receptors, e.g., 2B4, 4-1BB, CD39, CD69, LAG3, PD-1, TIGIT, and TIM3. Expression of these inhibitory receptors in T cell products prepared by Panobinostat treatment at different time was determined. […] Panobinostat treatment on Day 0 increased % PD-1+ cells in T cell products as compared with other treatments and control.
# CD39 may be considered as a marker for exhausted T cells, e.g., CD8+ T cells, in cancer. CD69 is a membrane-bound, type II C-lectin receptor and may be considered as an early marker of lymphocyte activation due to its rapid appearance on the surface of the plasma membrane after stimulation. […] Dasatinib may have little effect on % of terminally differentiated CD39-positive state (CD39+CD69+) and % of CD69+ state in T cell products.
# Common to both CD4+ and CD8+ exhausted T cells may be the surface expression of multiple inhibitory receptors including 2B4, 4-1BB, CD39, CD69, LAG3, PD-1, TIGIT, and TIM-3.
# [7] = tested on: transduced T cells; test: Response to Ag exposure (cytokine expression, exhaustion); format: cell-based; conditions: Acceptable range ≥Control; Table 5 summary grade
# Excerpt: as §2
# [8] = dasatinib (5 nM) on Day 2 compared with dasatinib (10 nM) on Day 5, FIG. 25A
# [9] = dasatinib (10 nM) on Day 2 or Day 5, FIG. 23B
# [10] = dasatinib added Day 2 (5 nM) and Day 5 (10 nM) during feeding and expansion, vs untreated control, FIG. 25A
# [11] = dasatinib (10 nM) on Day 2 or Day 5, vs untreated control, FIG. 23C
molecule,measurement,setting,value
"Nc1ccccc1NC(=O)c1ccc(CNC(=O)OCc2cccnc2)cc1 [Entinostat, entinostat]",toxicity to T cells,[1],highly toxic
same,viability of transduced T cells,[1],reduced T cell viability
same,fold expansion,[2]; 2 (unit uncertain),reduced fold expansion
same,% CD8+ T cells,[3]; 2 (unit uncertain),reduced % CD8+ T cells
same,% CD8+ TCR+ cells (transduction efficiency),[3]; 2 (unit uncertain),reduced % CD8+ TCR+ cells
O=C(CCCCCCNC(=O)c1cnc(N(c2ccccc2)c2ccccc2Cl)nc1)NO [ACY-241],CD28+CD62L+ cells (Tcm-like cells),[4]; 100 nM,more CD28+CD62L+ cells; also recorded: increased
same,% Tnaïve cells,[4]; 100 nM,most % Tnaïve cells; also recorded: most naïve cells
same,TemRA cells,[4]; 100 nM,least TemRA cells
CCCC(CCC)C(=O)O [valproic acid],toxicity to T cells,[1],highly toxic
same,fold expansion,[2]; 1.5 (unit uncertain),reduced fold expansion
same,% CD8+ T cells,[3]; 1.5 (unit uncertain),reduced % CD8+ T cells
CCCC(=O)[O-].[Na+] [Sodium butyrate],viability of transduced T cells,[1],reduced T cell viability
same,toxicity to T cells,[1]; summary of Example 2,highly toxic
same,fold expansion,[2]; 2 (unit uncertain),reduced fold expansion
same,% CD8+ T cells,[3]; 2 (unit uncertain),reduced % CD8+ T cells
same,% CD8+ TCR+ cells (transduction efficiency),[3]; 2 (unit uncertain),reduced % CD8+ TCR+ cells
"Cc1nc(Nc2ncc(C(=O)Nc3c(C)cccc3Cl)s2)cc(N2CCN(CCO)CC2)n1 [Dasatinib, dasatinib]",tumor killing activity,"[5]; expansion in the presence of dasatinib, TCR normalized T cells:UACC257-RFP=3:1, n=3 healthy donors, vs Panobinostat or AKTi VIII and controls, FIG. 28A, 29A-C",significantly better tumor killing activity
same,phenotype,[4]; Dasatinib-treated cells vs untreated cells,Better Phenotype
same,Ranking of T cell products from the most Tnaive and the least TemRA to the least Tnaive and the most TemRA,[4],dasatinib (5 nM) on Day 2 >dasatinib (10 nM) on Day 5 >AKTi VIII >Panobinostat
same,% TemRA in T cell products,[4]; [8],less
same,% Tnaive in T cell products,[4]; [8],more
same,expression of CD27,"[4]; dasatinib (10 nM) on Day 2 or Day 5, FIG. 23A",Little effect
same,% Tnaive in T cell products,[4]; [9],less
same,% of differentiated TemRA,[4]; [9],less
same,% CD62L+ and % CD28+CD62L+ cells in T cell products,"[4]; dasatinib (10 nM) on Day 2 or Day 5, vs Panobinostat, SAHA+IL-21, AKTi VIII or untreated control, FIG. 26A",increased
same,MFI of CD27 and CD62L in T cell products,"[4]; dasatinib (10 nM) on Day 2 or Day 5, vs Panobinostat, SAHA+IL-21, AKTi VIII or untreated control, FIG. 26B",increased
same,expression of Tnaive and Tcm markers CD28 and CD62L,"[4]; dasatinib (10 nM) on Day 2 or Day 5, vs untreated control, FIG. 23A",increased
same,% TemRA in T cell products,[4]; [10],decreased
same,% Tnaive in T cell products,[4]; [10],increased
same,number of Tnaive in T cell products,"[4]; dasatinib added Day 2 (5 nM) and Day 5 (10 nM) during feeding and expansion, vs untreated control, FIG. 25B",increased
same,"Manufacturing metrics (expansion, viability, yield)","[2]; Acceptable range ≥Control, Table 5 summary grade",=
same,fold expansion of T cell products,"[2]; dasatinib added Day 2 (5 nM) and Day 5 (10 nM) during feeding and expansion, FIG. 24A",little effect
same,fold expansion of T cell products,"[2]; dasatinib on Day 2 (10 nM or 100 nM) or Day 5 (10 nM or 100 nM), FIG. 22A",little effect
same,% CD8+ TCR+ T cells (transduction efficiency),"[3]; dasatinib added Day 2 (5 nM) and Day 5 (10 nM) during feeding and expansion, FIG. 24B",higher
same,total number of T cell products with CD8+ TCR+ T cells,"[3]; dasatinib added Day 2 (5 nM) and Day 5 (10 nM) during feeding and expansion, FIG. 24C",little effect
same,% CD8+ TCR+ T cells (transduction efficiency),"[3]; dasatinib on Day 2 (10 nM or 100 nM) or Day 5 (10 nM or 100 nM), FIG. 22B",higher
same,total number of T cell products with CD8+ TCR+ T cells,"[3]; expansion in the presence of dasatinib, FIG. 22C",little effect
same,"% 2B4+, % Cd69+, and % TIM-3+ cells in T cell products","[6]; dasatinib (10 nM) on Day 2 or Day 5, vs Panobinostat or AKTi VIII or untreated control, FIG. 27A",decreased
same,MFI of 4-1BB and TIM-3 in T cell products,"[6]; dasatinib (10 nM) on Day 2 or Day 5, vs Panobinostat or AKTi VIII or untreated control, FIG. 27B",decreased
same,% of T cell products with differentiated CD39+ state (CD39+),[6]; [11],slightly higher
same,% of T cell products with memory-progenitor CD39− negative stem-like phenotype (CD39−CD69−),[6]; [11],slightly less
same,% of terminally differentiated CD39-positive state (CD39+CD69+) and % of CD69+ state,"[6]; dasatinib, FIG. 23C",little effect
"3-[1-[[4-(7-phenyl-3H-imidazo[4, 5g]quinoxalin-6-yl)phenyl]methyl]piperidin-4-yl]-1H-benzimidazol-2-one [AKTi VIII]",tumor killing activity,"[5]; AKTi VIII 250 nM added Day 0 during activation, UACC257-RFP, E:T=3:1, n=3 patients, vs Panobinostat and controls, FIG. 21A",better tumor killing activity
same,tumor killing activity,"[5]; AKTi VIII 250 nM added Day 0 during activation, UACC257-RFP, E:T=3:1, n=3 patients, vs Panobinostat and controls, FIG. 21A, listed as AKTi",better tumor-killing activity
same,"% of Tcm (CD45RA−CCR7+), Teff (CD45−CCD7−), and TemRA (CD45RA+CCR7-)","[4]; AKTi VIII 250 nM added Day 0 during activation, FIG. 20A",little effect
same,total number of Tnaive (CD45RA+CCR7+) in T cell products,"[4]; AKTi VIII 250 nM added Day 0 during activation, vs Panobinostat, SAHA+IL-21 and untreated control, FIG. 20B, 25B",best total number; also recorded: increased
same,% Tnaive (CD45RA+CCR7+) in T cell products,"[4]; AKTi VIII 250 nM added Day 0 during activation, vs untreated control, FIG. 20A, 25A",increased
same,"expression of Tnaive and Tcm markers (CD27, CD28, CD62L)","[4]; AKTi VIII 250 nM added Day 0 during activation, vs untreated control, FIG. 20C",little effect
same,% TemRA in T cell products,"[4]; AKTi VIII 250 nM added Day 0 during activation, vs untreated control, FIG. 25A",decreased
same,Memory Phenotype,"[4]; Acceptable range: Higher % of Tscm, Tcm, lower % of TemRA, improvements in other memory markers (CD62L, CD28, CD27), Table 5 summary grade",+/=
same,Ranking of T cell products from the most Tnaive and the least TemRA to the least Tnaive and the most TemRA,[4],dasatinib (5 nM) on Day 2 >dasatinib (10 nM) on Day 5 >AKTi VIII >Panobinostat
same,fold expansion of T cell products,"[2]; AKTi VIII 250 nM added Day 0 during activation, FIG. 19A, 24A",little effect
same,manufacturing metrics and phenotype,[2]; AKTi-treated cells compared with Panobinostat and SAHA+IL-21 treated cells,relatively better
same,"Response to Ag exposure (cytokine expression, exhaustion)",[7],+/=
same,% CD8+ TCR+ T cells (transduction efficiency),"[3]; AKTi VIII 250 nM added Day 0 during activation, FIG. 19B, 24B",higher
same,Exhaustion phenotype,"[6]; Acceptable range ≤% of exhausted cells to control, Table 5 summary grade",=
"O=C(CCCCCCC(=O)Nc1ccccc1)NO [SAHA, suberanilohydroxamic acid]",CD28+CD62L+ cells (Tcm-like cells),[4]; 50 nM,more CD28+CD62L+ cells; also recorded: increased
same,% Tnaïve cells,[4]; 50 nM,most % Tnaïve cells; also recorded: most naïve cells
same,TemRA cells,[4]; 50 nM,least TemRA cells
